Measurements from patent US9422285B2, “Substituted pyrazolo[1,5-A]-pyridine-3-carboxamides and use thereof” (Bayer Pharma Aktiengesellschaft, priority 2014, dated 2016).
Counter-ions that a name gives are not always drawn.

Biological target: T1, recombinant guanylate cyclase reporter cell line (Rattus norvegicus, UniProt P19686+P20595)
T1 construct: expressed in transfected cells
T1 sequence (P19686 1-690): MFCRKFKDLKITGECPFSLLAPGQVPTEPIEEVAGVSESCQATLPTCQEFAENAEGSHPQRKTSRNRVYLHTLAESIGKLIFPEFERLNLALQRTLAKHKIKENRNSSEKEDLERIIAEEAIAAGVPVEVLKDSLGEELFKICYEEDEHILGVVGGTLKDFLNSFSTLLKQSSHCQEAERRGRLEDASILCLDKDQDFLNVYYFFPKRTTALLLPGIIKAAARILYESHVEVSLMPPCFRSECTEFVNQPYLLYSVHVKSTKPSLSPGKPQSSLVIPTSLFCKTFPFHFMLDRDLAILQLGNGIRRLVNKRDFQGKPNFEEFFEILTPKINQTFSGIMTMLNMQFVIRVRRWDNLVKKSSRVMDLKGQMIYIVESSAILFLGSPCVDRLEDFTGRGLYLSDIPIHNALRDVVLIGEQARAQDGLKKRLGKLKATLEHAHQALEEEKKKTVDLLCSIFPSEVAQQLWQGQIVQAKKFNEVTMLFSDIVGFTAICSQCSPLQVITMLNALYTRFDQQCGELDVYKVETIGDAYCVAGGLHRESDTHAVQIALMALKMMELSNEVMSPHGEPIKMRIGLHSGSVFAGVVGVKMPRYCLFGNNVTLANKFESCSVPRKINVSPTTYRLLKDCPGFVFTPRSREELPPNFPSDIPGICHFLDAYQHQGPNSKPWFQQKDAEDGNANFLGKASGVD
T1 sequence (P20595 1-619): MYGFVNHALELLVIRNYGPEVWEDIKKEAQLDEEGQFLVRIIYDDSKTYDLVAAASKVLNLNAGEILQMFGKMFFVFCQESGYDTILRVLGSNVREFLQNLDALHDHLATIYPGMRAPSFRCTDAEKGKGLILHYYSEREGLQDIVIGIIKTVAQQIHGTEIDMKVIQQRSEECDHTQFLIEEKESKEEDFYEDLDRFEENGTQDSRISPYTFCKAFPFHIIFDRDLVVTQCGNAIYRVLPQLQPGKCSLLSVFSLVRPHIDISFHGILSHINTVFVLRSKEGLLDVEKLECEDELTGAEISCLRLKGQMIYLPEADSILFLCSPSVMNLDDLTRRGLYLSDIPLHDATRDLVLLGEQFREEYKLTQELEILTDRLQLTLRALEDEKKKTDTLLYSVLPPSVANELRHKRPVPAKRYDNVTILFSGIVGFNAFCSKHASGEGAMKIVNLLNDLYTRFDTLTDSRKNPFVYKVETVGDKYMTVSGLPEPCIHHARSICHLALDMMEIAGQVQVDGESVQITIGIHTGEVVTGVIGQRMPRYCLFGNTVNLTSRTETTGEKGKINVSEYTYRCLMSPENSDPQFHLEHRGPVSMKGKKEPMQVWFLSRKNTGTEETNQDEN
Assay: Effect on a recombinant guanylate cyclase reporter cell line (B-2)
Assay type: cell-based
Details: in some cases mean values for individual determinations
Description: B-2. Effect on a Recombinant Guanylate Cyclase Reporter Cell Line
The cellular effect of the inventive compounds is determined using a recombinant guanylate cyclase reporter cell line, as described in F. Wunder et al., Anal. Biochem. 339, 104-112 (2005).
Representative MEC values (MEC=minimum effective concentration) for the inventive compounds are shown in the table below (in some cases as mean values for individual determinations): […]

Structure (SMILES)	MEC (minimum effective concentration)
CCCC(C)(N)CNC(=O)c1c(C)nn2c(OCc3c(F)ccc(OC)c3F)cc(C)cc12 (racemic) [Example 161, rac-N-(2-Amino-2-methylpentyl)-7-[(2,6-difluoro-3-methoxybenzyl)oxy]-2,5-dimethylpyrazolo[1,5-a]pyridine-3-carboxamide]	3.0 µM
Cc1cc(OCc2c(F)cccc2F)n2nc(C)c(C(=O)NC3CCOc4ccccc43)c2c1 (racemic) [Example 87, rac-7-[(2,6-Difluorobenzyl)oxy]-N-(3,4-dihydro-2H-chromen-4-yl)-2,5-dimethylpyrazolo[1,5-a]pyridine-3-carboxamide]	0.3 µM
Cc1cc(OCc2c(F)cccc2F)n2nc(C)c(C(=O)NCC3CNCCO3)c2c1 (racemic) [Example 142, rac-7-[(2,6-Difluorobenzyl)oxy]-2,5-dimethyl-N-(morpholin-2-ylmethyl)pyrazolo[1,5-a]pyridine-3-carboxamide]	10 µM
Cc1cc(OCc2c(F)cccc2F)n2nc(C)c(C(=O)NC3CCCCNC3)c2c1 (racemic) [Example 127, rac-N-(Azepan-3-yl)-7-[(2,6-difluorobenzyl)oxy]-2,5-dimethylpyrazolo[1,5-a]pyridine-3-carboxamide]	0.3 µM
Cc1cc(OCc2c(F)cccc2F)n2nc(C3CC3)c(C(=O)NCC(C)(N)CC(F)F)c2c1 (single isomer, unassigned) [Example 56, ent-N-(2-Amino-4,4-difluoro-2-methylbutyl)-2-cyclopropyl-7-[(2,6-difluorobenzyl)oxy]-5-methylpyrazolo[1,5-a]pyridine-3-carboxamide]	0.3 µM
Cc1cc(OCc2c(F)cccc2F)n2nc(C)c(C(=O)NCCCS(=O)(=O)NC3CC3)c2c1 [Example 151, N-[3-(Cyclopropylsulphamoyl)propyl]-7-[(2,6-difluorobenzyl)oxy]-2,5-dimethylpyrazolo[1,5-a]pyridine-3-carboxamide]	3.0 µM
Cc1cc(OCc2c(F)ccc(F)c2F)n2nc(C)c(C(=O)N[C@H]3CCOC3=O)c2c1 [Example 27, 2,5-Dimethyl-N-[(3S)-2-oxotetrahydrofuran-3-yl]-7-[(2,3,6-trifluorobenzyl)oxy]pyrazolo[1,5-a]pyridine-3-carboxamide]	0.3 µM
Cc1cc(OCc2c(F)cccc2F)n2nc(C)c(C(=O)NC3CC[C@@H]4NCC[C@H]34)c2c1 (relative stereo) [Example 122, rel-7-[(2,6-Difluorobenzyl)oxy]-2,5-dimethyl-N-[(3aR,6aR)-octahydrocyclopenta[b]pyrrol-4-yl]pyrazolo[1,5-a]pyridine-3-carboxamide]	10 µM
Cc1cc(OCc2c(F)cccc2F)n2nc(C)c(C(=O)NCC(C)(N)CCF)c2c1 (racemic) [Example 48, rac-N-(2-Amino-4-fluoro-2-methylbutyl)-7-[(2,6-difluorobenzyl)oxy]-2,5-dimethylpyrazolo[1,5-a]pyridine-3-carboxamide]	0.3 µM
Cc1cc(OCc2c(F)ccc(F)c2F)n2nc(C)c(C(=O)NC(CO)c3ccc(F)cc3)c2c1 (racemic) [Example 30, rac-N-[1-(4-Fluorophenyl)-2-hydroxyethyl]-2,5-dimethyl-7-[(2,3,6-trifluorobenzyl)oxy]pyrazolo[1,5-a]pyridine-3-carboxamide]	0.1 µM
CCCC(C)(N)CNC(=O)c1c(C)nn2c(OCc3c(F)cccc3F)cccc12 (racemic) [Example 163, rac-N-(2-Amino-2-methylpentyl)-7-[(2,6-difluorobenzyl)oxy]-2-methylpyrazolo[1,5-a]pyridine-3-carboxamide]	3.0 µM
CCCc1nn2c(OCc3c(F)cccc3F)cc(C)cc2c1C(=O)NCC(C)(N)CCC (single isomer, unassigned) [Example 51, ent-N-(2-Amino-2-methylpentyl)-7-[(2,6-difluorobenzyl)oxy]-5-methyl-2-propylpyrazolo[1,5-a]pyridine-3-carboxamide]	1.0 µM
Cc1cc(OCc2c(F)cccc2F)n2nc(C)c(C(=O)NC3CCC(C)(C)c4ccccc43)c2c1 (racemic) [Example 145, rac-7-[(2,6-Difluorobenzyl)oxy]-N-(4,4-dimethyl-1,2,3,4-tetrahydronaphthalen-1-yl)-2,5-dimethylpyrazolo[1,5-a]pyridine-3-carboxamide]	1.0 µM
Cc1cc(OCc2c(F)cccc2F)n2nc(C)c(C(=O)N[C@@H](CO)c3cccs3)c2c1 [Example 176, 7-[(2,6-Difluorobenzyl)oxy]-N-[(1S)-2-hydroxy-1-(2-thienyl)ethyl]-2,5-dimethylpyrazolo[1,5-a]pyridine-3-carboxamide]	0.3 µM
Cc1cc(OCc2c(F)cccc2F)n2nc(C)c(C(=O)N[C@H](CO)c3ccc(C)o3)c2c1 [Example 178, 7-[(2,6-Difluorobenzyl)oxy]-N-[(1R)-2-hydroxy-1-(5-methyl-2-furyl)ethyl]-2,5-dimethylpyrazolo[1,5-a]pyridine-3-carboxamide]	1.0 µM
Cc1cc(OCc2c(F)cccc2F)n2nc(C)c(C(=O)NCC(N)c3ccc(C)o3)c2c1 (racemic) [Example 104, rac-N-[2-Amino-2-(5-methyl-2-furyl)ethyl]-7-[(2,6-difluorobenzyl)oxy]-2,5-dimethylpyrazolo[1,5-a]pyridine-3-carboxamide]	3.0 µM
Cc1cc(OCc2c(F)ccc(F)c2F)n2nc(C)c(C(=O)Nc3cnn(CCO)c3)c2c1 [Example 33, N-[1-(2-Hydroxyethyl)-1H-pyrazol-4-yl] -2,5-dimethyl-7-[(2,3,6-trifluorobenzyl)oxy]pyrazolo[1,5-a]pyridine-3-carboxamide]	3.0 µM
C=CCONC(=O)c1c(C)nn2c(OCc3c(F)cccc3F)cc(C)cc12 [Example 65, N-(Allyloxy)-7-[(2,6-difluorobenzyl)oxy]-2,5-dimethylpyrazolo[1,5-a]pyridine-3-carboxamide trifluoroacetate]	3.0 µM
CCCC(C)(N)CNC(=O)c1c(C)nn2c(OCc3c(F)cccc3F)cc(OC)cc12 (racemic) [Example 171, rac-N-(2-Amino-2-methylpentyl)-7-[(2,6-difluorobenzyl)oxy]-5-methoxy-2-methylpyrazolo[1,5-a]pyridine-3-carboxamide]	1.0 µM
Cc1cc(OCc2c(F)cccc2F)n2nc(C)c(C(=O)NC(CN)c3ccc(F)c(F)c3)c2c1 (stereo not drawn) [Example 133, ent-N-[2-Amino-1-(3,4-difluorophenyl)ethyl]-7-[(2,6-difluorobenzyl)oxy]-2,5-dimethylpyrazolo[1,5-a]pyridine-3-carboxamide]	0.3 µM
Cc1cc(OCc2c(F)cccc2F)n2nc(C)c(C(=O)NC3CCNC(C(F)(F)F)C3)c2c1 (stereo not shown) [Example 154, 7-[(2,6-Difluorobenzyl)oxy]-2,5-dimethyl-N-[2-(trifluoromethyl)piperidin-4-yl]pyrazolo[1,5-a]pyridine-3-carboxamide]	1.0 µM
CCC(C)(N)CNC(=O)c1c(C)nn2c(OCc3c(F)ccc(F)c3F)cc(C)cc12 (single isomer, unassigned) [Example 3, ent-N-(2-Amino-2-methylbutyl)-2,5-dimethyl-7-[(2,3,6-trifluorobenzyl)oxy]pyrazolo[1,5-a]pyridine-3-carboxamide]	0.3 µM
